Reference: article PMC8714961, “Involvement of P-gp on Reversing Multidrug Resistance Effects of 23-Hydroxybetulinic Acid on Chemotherapeutic Agents” (Frontiers in Pharmacology, 2021)
Blank lines part the entries; values can stand above or below the molecule they belong to.

How the values were obtained:
MCF-7/ADR cells [1] = test: Trypan blue exclusion assay, MCF-7/ADR cells; assay type: cell-based
Description: (§1) MCF-7 (human breast carcinoma cells) and MCF-7/ADR (P-gp-overexpressing derivative cells) cell lines were obtained from Blood Diseases Hospital, Chinese Academy of Medica ([Shi et al., 2011]). The cells were routinely maintained in RPMI 1640 with 10% heat-inactivated fetal bovine serum (FBS), 1% non-essential amino acid solution, 0.1 mg/ml streptomycin, and 100 units/ml penicillin. Caco-2 cells were purchased from American Type Culture Collection (ATCC, Rockville, MD, United States). Vector-MDCK and MDR1-MDCK cells were purchased from PharmaResources Co., Ltd. (China). Both Caco-2 and MDCK cells were maintained at Dulbecco’s modified Eagle’s medium (DMEM) with 10% FBS, 1% non-essential amino acid solution, 0.1 mg/ml streptomycin, and 100 units/ml penicillin. MCF-7/ADR cells were treated with […] and were cultured in ADR-free medium for more than 14 days before the experiment. All cells were cultured at 37°C in a humidified atmosphere of 5% CO2.
(§2) Trypan blue exclusion assay was used to measure the viability of cells to compounds. Briefly, MCF-7/sensitive (MCF-7/S) and MCF-7/ADR cells were diluted into the density of 0.5×10^4 cells/ml, then cells (1 ml) were seeded in culture plates. […]. The viable and dead cells (stained in blue) were counted by haemacytometer.

MCF-7/S cells [2] = test: Trypan blue exclusion assay, MCF-7/S cells; assay type: cell-based; settings: 0.2, 2 and 20 µM with ADR 0.08 µM or VCR 0.5 µM, 48 h
Description: as §1, §2

MCF-7/ADR cells [3] = test: Hoechst assay (apoptosis); assay type: cell-based, human; settings: 20 µM alone, vs control group
Description: MCF-7/ADR cells were collected and cultured at the density of 2.0 × 10^5/well in 24-well plates. […] The cells were dyed with Hoechst 33,342 (Beyotime, Shanghai, China) in the dark at 37°C for 30 min after washing with phosphate buffered saline (PBS). The morphological changes of the nucleus were evaluated by a fluorescence microscope.

[4] = test system: MDCK-MDR1 cell monolayers; test: MDCK-MDR1 transport of BA/23-HBA with or without verapamil; settings: +VER (verapamil 20 µM) vs without VER
Description: (§3) Briefly, MDCK-MDR1 cells (1×10^5/Well) were seeded onto […] pore-size transwell inserts (Millipore, MA, United States) in 24-well plates. Cells were cultured for 5–7 days, when the transepithelial electrical resistance (TEER) values were 120–240 Ω cm^2.
(§4) The cells were rinsed with warmed Hank’s balanced salt solution (HBSS), and the inserts were incubated for 20 min at 37°C. […] Aliquots (50 µl) were taken from the receiver compartment at intervals of 30, 60, 90, and 120 min and replaced with fresh buffer. In the study, verapamil (VER), known P-gp inhibitor, was selected as positive control.
(§5) The apparent permeability values (Papp) were evaluated in all experiments according to the following equation: Papp=dQ/dt/AC0 (1) where A means the insert area and C0 represents the initial concentration. dQ/dt represents the slope of the cumulative content transported during the time course of the period studied.
(§6) The efflux ratio (ER) was detected according to the ratio of Papp as the following equation: ER=Papp(B−A)/Papp(A−B) (2)

P-gp [5] = test: as above; settings: dog
Description: as §3, §4, §5, §6

MCF-7/S cells [6] = test: ADR/VCR accumulation study in MCF-7/S cells; settings: ADR/VCR 5 µM, test compound 0.2, 2, 20 µM, 1 h
Description: MCF-7 cells (1×10^5/Well) were incubated in 24-well plates. […] After 1 h incubation, the compound solution was aspirated to stop further accumulation, and the monolayers were rinsed with cold Hank’s solution for three times. The drug content was detected by lysing the cells with ultrasound, and then the single well lysate was transferred to a plastic EP tube for further analysis. The protein concentration of the cells was measured using Coomassie brilliant blue.

P-gp [7] = target: T1, P-gp (Homo sapiens, UniProt P08183); test: MDCK-MDR1 transport study, inhibition of VCR transport; settings: dog, MDCK-MDR1
Description: Briefly, MDCK-MDR1 cells (1×10^5/Well) were seeded onto […] pore-size transwell inserts (Millipore, MA, United States) in 24-well plates.
as §4, §5

P-gp [8] = target: T1, P-gp; settings: Control: digoxin 5 µM alone, MDCK-MDR1 monolayers
Description: (§7) Briefly, MDCK-MDR1 cells (1×10^5/Well) were seeded onto 0.4 mm pore-size transwell inserts (Millipore, MA, United States) in 24-well plates.

P-gp [9] = target: T1, P-gp; test: in vitro; settings: dog, MDCK-MDR1
Description: as §7

[10] = MDCK-MDR1, with verapamil 20 µM

T1 sequence (P08183 whole entry): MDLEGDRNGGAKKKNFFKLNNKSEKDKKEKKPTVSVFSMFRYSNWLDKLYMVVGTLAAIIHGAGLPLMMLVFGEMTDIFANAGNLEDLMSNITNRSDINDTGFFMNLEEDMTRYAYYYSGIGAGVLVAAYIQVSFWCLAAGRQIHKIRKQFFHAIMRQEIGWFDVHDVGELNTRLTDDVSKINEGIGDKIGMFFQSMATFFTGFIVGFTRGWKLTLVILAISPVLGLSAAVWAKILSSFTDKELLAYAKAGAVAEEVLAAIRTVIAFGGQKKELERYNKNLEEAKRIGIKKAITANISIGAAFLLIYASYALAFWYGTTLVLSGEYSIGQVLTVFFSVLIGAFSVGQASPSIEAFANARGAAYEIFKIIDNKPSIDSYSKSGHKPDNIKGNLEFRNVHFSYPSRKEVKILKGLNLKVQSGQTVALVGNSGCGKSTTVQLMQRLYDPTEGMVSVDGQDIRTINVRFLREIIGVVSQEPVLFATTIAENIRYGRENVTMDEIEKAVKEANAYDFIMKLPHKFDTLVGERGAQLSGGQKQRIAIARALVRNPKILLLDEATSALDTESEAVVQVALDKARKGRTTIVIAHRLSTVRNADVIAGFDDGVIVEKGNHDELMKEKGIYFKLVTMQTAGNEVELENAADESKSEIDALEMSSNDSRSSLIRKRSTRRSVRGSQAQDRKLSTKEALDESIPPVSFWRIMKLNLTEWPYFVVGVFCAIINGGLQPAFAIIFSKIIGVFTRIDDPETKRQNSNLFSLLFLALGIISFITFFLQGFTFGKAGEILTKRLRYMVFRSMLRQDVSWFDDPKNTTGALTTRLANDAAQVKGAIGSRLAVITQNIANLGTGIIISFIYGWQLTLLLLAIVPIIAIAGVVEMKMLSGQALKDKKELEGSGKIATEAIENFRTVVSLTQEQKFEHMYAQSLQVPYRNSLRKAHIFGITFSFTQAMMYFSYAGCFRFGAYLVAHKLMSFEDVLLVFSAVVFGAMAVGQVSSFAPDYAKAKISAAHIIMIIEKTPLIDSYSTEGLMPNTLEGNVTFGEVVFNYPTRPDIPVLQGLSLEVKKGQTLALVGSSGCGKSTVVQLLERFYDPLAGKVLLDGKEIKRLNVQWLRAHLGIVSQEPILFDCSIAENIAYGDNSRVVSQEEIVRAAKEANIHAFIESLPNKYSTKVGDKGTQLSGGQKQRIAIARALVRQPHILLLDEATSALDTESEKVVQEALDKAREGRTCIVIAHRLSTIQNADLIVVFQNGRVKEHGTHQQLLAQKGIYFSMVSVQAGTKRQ

SMILES: C=C(C)[C@@H]1CC[C@]2(C(=O)O)CC[C@]3(C)[C@H](CC[C@@H]4[C@@]5(C)CC[C@H](O)C(C)(C)[C@@H]5CC[C@]43C)[C@@H]12 [BA, Betulinic acid]
Cytotoxicity of combination exposure with ADR to MCF-7/ADR (MCF-7/ADR cells [1]; 0–20 µM with ADR 3 µM): not observed | Cell toxicity as a single agent (MCF-7/ADR cells [1]; 0–20 µM, single agent): no cell toxicity was detected | Effect on cytotoxicity of MCF-7/S cells to ADR or VCR (MCF-7/S cells [2]): neither 23-HBA nor BA showed significant effects on cytotoxicity | Number of apoptosis cells, single agent (MCF-7/ADR cells [3]): not obviously different with the control group | Folds (RE) ([4]; compound 0.2 µM): 0.66 | Folds (RE) ([4]; compound 2 µM): 0.75 | Folds (RE) ([4]; compound 20 µM): 0.78 | Papp A→B at 120 min, 0.2 µM (P-gp [5]; MDCK-MDR1): 61.2 ± 9.36 ×10⁻⁶ cm/s | Papp A→B at 120 min, 2 µM (P-gp [5]; MDCK-MDR1): 5.43 ± 0.5 ×10⁻⁶ cm/s | Papp A→B at 120 min, 20 µM (P-gp [5]; MDCK-MDR1): 0.72 ± 0.26 ×10⁻⁶ cm/s | Papp B→A at 120 min, 0.2 µM (P-gp [5]; MDCK-MDR1): 55.1 ± 9.8 ×10⁻⁶ cm/s | Papp B→A at 120 min, 2 µM (P-gp [5]; MDCK-MDR1): 6.51 ± 0.81 ×10⁻⁶ cm/s | Papp B→A at 120 min, 20 µM (P-gp [5]; MDCK-MDR1): 0.59 ± 0.14 ×10⁻⁶ cm/s | Papp A→B at 120 min, 0.2 µM (P-gp [5]; [10]): 105 ± 10.5 ×10⁻⁶ cm/s | Papp A→B at 120 min, 2 µM (P-gp [5]; [10]): 7.65 ± 1.53 ×10⁻⁶ cm/s | Papp A→B at 120 min, 20 µM (P-gp [5]; [10]): 0.26 ± 0.05 ×10⁻⁶ cm/s | Papp B→A at 120 min, 0.2 µM (P-gp [5]; [10]): 62.1 ± 4.71 ×10⁻⁶ cm/s | Papp B→A at 120 min, 2 µM (P-gp [5]; [10]): 6.9 ± 0.76 ×10⁻⁶ cm/s | Papp B→A at 120 min, 20 µM (P-gp [5]; [10]): 0.17 ± 0.05 ×10⁻⁶ cm/s | Accumulation of ADR/VCR in sensitive MCF-7 cells (MCF-7/S cells [6]): little impact was observed

Papp A→B at 120 min (P-gp [7]): 0.35 ± 0.17 ×10⁻⁶ cm/s | Papp B→A at 120 min (P-gp [7]): 3.86 ± 0.71 ×10⁻⁶ cm/s | efflux ratio at 120 min (P-gp [7]): 10.9
SMILES: CC[C@]1(O)C[C@H]2CN(CCc3c([nH]c4ccccc34)[C@@](C(=O)OC)(c3cc4c(cc3OC)N(C=O)[C@H]3[C@@](O)(C(=O)OC)[C@H](OC(C)=O)[C@]5(CC)C=CCN6CC[C@]43[C@@H]65)C2)C1 [VCR, Vincristine, reference compound]

RE (net efflux) of digoxin (P-gp [8]): 36.56 | Papp A→B at 120 min, 5 µM (P-gp [9]): 0.31 ± 0.05 ×10⁻⁶ cm/s
SMILES: C[C@H]1O[C@@H](O[C@H]2[C@@H](O)C[C@H](O[C@H]3[C@@H](O)C[C@H](O[C@H]4CC[C@@]5(C)[C@H](CC[C@@H]6[C@@H]5C[C@@H](O)[C@]5(C)[C@@H](C7=CC(=O)OC7)CC[C@]65O)C4)O[C@@H]3C)O[C@@H]2C)C[C@H](O)[C@@H]1O [digoxin, reference compound]
